In one assay the target is T1, RXFP4 (HRXFP4 CHO cells) (Homo sapiens, UniProt Q8TDU9).
T1 construct: expressed in transfected cells; host or cells: CHO
The experiment in a line: Ligand receptor affinity detection (Eu-R3/I5 competition on HRXFP4 CHO cells). In kind it is binding. The conditions noted are these: for Ki: 5 nM Eu-R3/I5, 1 hour room temperature, read-out: pKi ± S.E.M. (converted); for Span ± S.E.M. (% R3/I5): 5 nM Eu-R3/I5, relative to R3/I5. The method, then:
2. Detection Method: Ligand Receptor Affinity Detection
Stably transfected HRXFP4 CHO cells and Eu—R3/I5 (lanthanide element europium labeled chimeric peptide R3/I5), BMG POLARstar reader (BMG Labtech), and test compound.
HRXFP4 CHO was introduced into a 96 well plate at 80000 cells per well. After 24 hours of cell culture in the incubator, discarded the supernatant, and washed once with PBS, then a binding buffer containing 1% BSA was added and incubated at room temperature for 1 hour. The cell plate was then washed once with PBS, followed by the addition of different concentrations of positive controls and test compounds, and incubated at room temperature with 5 nM Eu—R3/I5 for 1 hour.
After washing the cell plate once with PBS, an enhancement solution was added. After 45 minutes, the fluorescence value was measured using a BMG POLARstar reader (excitation wavelength of 340 nm, detection emission wavelength of 614 nm).

Assay [1] addresses T2, human RXFP4 (hRXFP4-CHO stably transfected cell line) (Homo sapiens, UniProt Q8TDU9).
T2 construct: expressed in transfected cells; host or cells: CHO
In words: Measurement of intracellular cAMP concentration (in vitro RXFP4 agonist activity). To be noted: hRXFP4-CHO cells, 500 nM Forskolin; for Emax ± S.E.M. (% INSL5): relative to INSL5. In kind it is cell-based. The method, then:
1. Detection Method: Measurement of Intracellular cAMP Concentration
CAMP detection kit (PerkinElmer), cell culture box (Thermo Fisher Scientific), EnVision multifunctional enzyme-linked immunosorbent assay (PerkinElmer), Forskolin (Sigma Aldrich), IBMX (Sigma Aldrich), DSMO (Sigma Aldrich), hINSL5 (Genova, human insulin-like peptide 5), hRXFP4-CHO stably transfected cell line for stable expression of human RXFP4, and test compound.
Stably transfected hRXFP4-CHO cells were seeded at 2.5×10^5 cells/mL the day before the experiment to maintain a growth density of 70%-80% in the culture dish the next day. On the day of the experiment, cells were digested with trypsin free digestion solution or 0.02% EDTA PBS solution, centrifugated, the supernatant was discarded, and cAMP experimental buffer (0.5 mM IBMX+5 mM HEPES+0.1% BSA) was prepared using 1×HBSS (calcium and magnesium free) solution. The cells were resuspended and inoculated to a 384 well plate at 4000 cells per well. The compound which was diluted with DMSO to different concentrations were added to the above 384 well plate. At the same time, 500 nM Forskolin was added and incubated at room temperature for 40 minutes. Then Eu cAMP and ULight anti cAMP working solutions were added according to the cAMP detection kit instructions. After incubation at room temperature for 40 minutes, an EnVision multifunctional enzyme-linked immunosorbent assay reader was used to read the results (excitation wavelength of 320 or 340 nm, detection emission wavelength of 665 nm).

T1 sequence (Q8TDU9 whole entry): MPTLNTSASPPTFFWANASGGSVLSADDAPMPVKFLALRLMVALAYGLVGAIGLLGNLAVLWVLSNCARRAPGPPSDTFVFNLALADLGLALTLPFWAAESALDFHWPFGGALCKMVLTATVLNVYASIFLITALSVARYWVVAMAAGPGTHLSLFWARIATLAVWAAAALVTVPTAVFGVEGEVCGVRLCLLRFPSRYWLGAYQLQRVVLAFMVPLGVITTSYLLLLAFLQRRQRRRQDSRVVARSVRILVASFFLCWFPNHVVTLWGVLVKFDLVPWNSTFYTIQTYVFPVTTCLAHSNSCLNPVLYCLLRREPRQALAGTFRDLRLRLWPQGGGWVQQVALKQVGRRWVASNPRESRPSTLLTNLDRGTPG
T2 sequence (Q8TDU9 whole entry): as above

Usually EC50 stands for the concentration that produces a half-maximal response. A lower EC50 goes with higher potency in that assay. On to `CCOc1cc2c(cc1OC)CCN(C(=O)N1CCOCC1)[C@@H]2CCc1c[nH]c2ccc(OC)cc12` [(R)-A1, (R)-(7-ethoxy-6-methoxy-1-(2-(5-methoxy-1H-indol-3-yl)ethyl)-3,4-dihydroisoquinolin-2(1H)-yl)(morpholino)methanone], for which the Ki at RXFP4 (HRXFP4 CHO cells) was above 100 µM. In assay [1] (40 minutes room temperature), the EC50 is 0.933 µM. Besides, the “Emax ± S.E.M. (% INSL5)” value in assay [1] was determined as 60.14 ± 10.64 % INSL5.

Regarding `CCOc1cc2c(cc1OC)CCN(C(=O)N1CCOCC1)[C@H]2CCc1c[nH]c2ccc(OC)cc12` [(S)-A1, (S)-(7-ethoxy-6-methoxy-1-(2-(5-methoxy-1H-indol-3-yl)ethyl)-3,4-dihydroisoquinolin-2(1H)-yl)(morpholino)methanone], at RXFP4 (HRXFP4 CHO cells), the Ki was 0.0589 µM and the “Span ± S.E.M. (% R3/I5)” value stood at 81.87 ± 4.47 % R3/I5. Moreover, the “pEC50 ± S.E.M.” value in assay [1] (40 minutes room temperature) amounted to 7.24 ± 0.12. The “Emax ± S.E.M. (% INSL5)” value in assay [1] is recorded as 98.76 ± 5.71 % INSL5.

Consider `CCOc1cc2c(cc1OC)CCN(C(=O)N1CCOCC1)C2CCc1c[nH]c2ccc(OC)cc12` (stereo not drawn) [Compound A1, (7-ethoxy-6-methoxy-1-(2-(5-methoxy-1H-indol-3-yl)ethyl)-3,4-dihydroisoquinolin-2(1H)-yl) (morpholino)methanone], for which, on RXFP4 (HRXFP4 CHO cells), the Ki was 0.148 µM and the “Span ± S.E.M. (% R3/I5)” value amounted to 88.98 ± 6.07 % R3/I5. The same compound had an EC50 in assay [1] (40 minutes room temperature) of 0.0871 µM. Besides, the “Emax ± S.E.M. (% INSL5)” value in assay [1] came out at 87.64 ± 4.58 % INSL5.

Turning to `CCOc1cc2c(cc1OC)CCN(C(=O)N1CCC(F)CC1)C2CCc1c[nH]c2ccc(OC)cc12` (stereo not drawn) [Compound A3, (4-fluoropiperidin-1-yl) (7-ethoxy-6-methoxy-1-(2-(5-methoxy-1H-indol-3-yl)ethyl)-3,4-dihydroisoquinolin-2(1H)-yl)methanone], at RXFP4 (HRXFP4 CHO cells), the Ki is 0.209 µM and the “Span ± S.E.M. (% R3/I5)” value was determined as 86.26 ± 6.71 % R3/I5. The response in assay [1] (40 minutes room temperature) was half-maximal at 0.204 µM (EC50). The “Emax ± S.E.M. (% INSL5)” value in assay [1] is reported as 101.82 ± 9.08 % INSL5.

For the compound `CCOc1cc2c(cc1OC)CCN(C(=O)N1CCC(F)(F)CC1)C2CCc1c[nH]c2ccc(OC)cc12` (stereo not drawn) [Compound A4, (4,4-difluoropiperidin-1-yl) (7-ethoxy-6-methoxy-1-(2-(5-methoxy-1H-indol-3-yl)ethyl)-3,4-dihydroisoquinolin-2(1H)-yl)methanone], at RXFP4 (HRXFP4 CHO cells), the Ki is 0.631 µM and the “Span ± S.E.M. (% R3/I5)” value turned out to be 66.34 ± 7.29 % R3/I5. In assay [1] (40 minutes room temperature), this compound had an EC50 of 0.0575 µM. Besides, in assay [1], the “Emax ± S.E.M. (% INSL5)” value was 62.00 ± 5.42 % INSL5.

Turning to `CCOc1cc2c(cc1OC)CCN(C(=O)N1CC[S+]([O-])CC1)C2CCc1c[nH]c2ccc(OC)cc12` (stereo not drawn) [Compound A5, (7-ethoxy-6-methoxy-1-(2-(5-methoxy-1H-indol-3-yl)ethyl)-3,4-dihydroisoquinolin-2(1H)-yl)(1-oxothiomorpholinyl)methanone], the Ki at RXFP4 (HRXFP4 CHO cells) is above 100 µM. This compound also showed an EC50 in assay [1] (40 minutes room temperature) of 10.2 µM. Also, the “Emax ± S.E.M. (% INSL5)” value in assay [1] turned out to be 56.43 ± 4.70 % INSL5.

`CCOc1cc2c(cc1OC)CCN(C(=O)N1CCS(=O)(=O)CC1)C2CCc1c[nH]c2ccc(OC)cc12` (stereo not drawn) [Compound A6, (1,1-dioxothiomorpholino) (7-ethoxy-6-methoxy-1-(2-(5-methoxy-1H-indol-3-yl)ethyl)-3,4-dihydroisoquinolin-2(1H)-yl)methylmethanone]: the Ki at RXFP4 (HRXFP4 CHO cells) was above 100 µM. In assay [1] (40 minutes room temperature), this compound gave an EC50 of 9.33 µM. The “Emax ± S.E.M. (% INSL5)” value in assay [1] is 51.74 ± 6.72 % INSL5.

Consider `CCOc1cc2c(cc1OC)CCN(C(=O)c1ccccn1)C2CCc1c[nH]c2ccc(OC)cc12` (stereo not drawn) [Compound A9, (7-ethoxy-6-methoxy-1-(2-(5-methoxy-1H-indol-3-yl)ethyl)-3,4-dihydroisoquinolin-2(1H)-yl) (pyridin-2-yl)methanone], for which, on RXFP4 (HRXFP4 CHO cells), the Ki was above 100 µM. The compound also gave a concentration giving a half-maximal response (EC50) in assay [1] (40 minutes room temperature) of 14.8 µM. Further, the “Emax ± S.E.M. (% INSL5)” value in assay [1] stood at 44.09 ± 5.25 % INSL5.

In the case of `COc1ccc2[nH]cc(CCC3c4cc(OCc5ccccc5)c(OC)cc4CCN3C(=O)N3CCOCC3)c2c1` (stereo not drawn) [Compound A30, (7-(benzyloxy)-6-methoxy-1-(2-(5-methoxy-1H-indol-3-yl)ethyl)-3,4-dihydroisoquinolin-2(1H)-yl) (morpholino)methanone], on RXFP4 (HRXFP4 CHO cells), the Ki is 0.851 µM and the “Span ± S.E.M. (% R3/I5)” value worked out at 81.61 ± 7.65 % R3/I5. The EC50 in assay [1] (40 minutes room temperature) is 0.427 µM. Further, the “Emax ± S.E.M. (% INSL5)” value in assay [1] amounted to 82.33 ± 8.47 % INSL5.

As to `CCOc1cc2c(cc1OC)CCN(C(=O)N1CCOCC1)C2CCc1c[nH]c2ccc(C#N)cc12` (stereo not drawn) [Compound A57, 3-(2-(7-ethoxy-6-methoxy-2-(morpholine-4-carbonyl)-1,2,3,4-tetrahydroisoquinolin-1-yl)ethyl)-1H-indole-5-carbonitrile], at RXFP4 (HRXFP4 CHO cells), the Ki is 0.129 µM and the “Span ± S.E.M. (% R3/I5)” value was found to be 92.06 ± 3.95 % R3/I5. In assay [1] (40 minutes room temperature), a half-maximal response (EC50) required 0.0275 µM. For the same compound, in assay [1], the “Emax ± S.E.M. (% INSL5)” value is 82.15 ± 4.95 % INSL5.

In the case of `CCOc1cc2c(cc1OC)CCN(C(=O)N1CCOCC1)C2CCc1c[nH]c2c(C)cc(OC)cc12` (stereo not drawn) [Compound A58, (7-ethoxy-6-methoxy-1-(2-(5-methoxy-7-methyl-1H-indol-3-yl)ethyl)-3,4-dihydroisoquinolin-2(1H)-yl)(morpholino) methanone], the Ki at RXFP4 (HRXFP4 CHO cells) is above 100 µM. In assay [1] (40 minutes room temperature), this compound gave an EC50 of 0.447 µM. In addition, the “Emax ± S.E.M. (% INSL5)” value in assay [1] worked out at 92.58 ± 7.46 % INSL5.

As for `CCOc1cc2c(cc1OC)CCN(C(=O)N1CCOCC1)C2CCc1c[nH]c2c(CC)cccc12` (stereo not drawn) [Compound A60, (7-Ethoxy-1-(2-(7-ethyl-1H-indol-3-yl)ethyl)-6-methoxy-3,4-dihydroisoquinolin-2(1H)-yl) (morpholino)methanone], on RXFP4 (HRXFP4 CHO cells), the Ki was 1.7 µM and the “Span ± S.E.M. (% R3/I5)” value is recorded as 75.02 ± 7.56 % R3/I5. For the same compound, the response in assay [1] (40 minutes room temperature) was half-maximal at 0.417 µM (EC50). In addition, the “Emax ± S.E.M. (% INSL5)” value in assay [1] is given as 72.49 ± 8.04 % INSL5.

As for `CCOc1cc2c(cc1OC)CCN(C(=O)N1CCOCC1)C2CCc1c[nH]c2ncccc12` (stereo not drawn) [Compound A69, (1-(2-(1H-pyrrolo[2,3-b]pyridin-3-yl)ethyl)-7-ethoxy-6-methoxy-3,4-dihydroisoquinolin-2(1H)-yl) (morpholino)methanone], the Ki at RXFP4 (HRXFP4 CHO cells) is above 100 µM. In assay [1] (40 minutes room temperature), this compound had an EC50 of 10 µM. Also, in assay [1], the “Emax ± S.E.M. (% INSL5)” value was 58.19 ± 7.80 % INSL5.

Regarding `COc1cc2c(cc1OC)[C@H](CCc1c[nH]c3cc(C)ccc13)N(C(=O)C1CCOCC1)CC2` [Compound A76, (S)-(6,7-dimethoxy-1-(2-(6-methyl-1H-indol-3-yl)ethyl)-3,4-dihydroisoquinolin-2(1H)-yl) (tetrahydro-2H-pyran-4-yl)methanone], on RXFP4 (HRXFP4 CHO cells), the Ki was above 100 µM. A half-maximal response in assay [1] (40 minutes room temperature) (EC50) required 3.16 µM. In addition, in assay [1], the “Emax ± S.E.M. (% INSL5)” value is on record as 43.69 ± 7.43 % INSL5.

As for `COc1cc2c(cc1OC)C(CCc1c[nH]c3ccccc13)N(C(=O)c1ccncc1)CC2` (stereo not drawn) [Compound A77, (1-(2-(1H-indol-3-yl)ethyl)-6,7-dimethoxy-3,4-dihydroisoquinolin-2(1H)-yl)(pyridin-4-yl)methanone], the Ki on RXFP4 (HRXFP4 CHO cells) is above 100 µM. Besides, the EC50 in assay [1] (40 minutes room temperature) was 0.437 µM. The “Emax ± S.E.M. (% INSL5)” value in assay [1] stood at 25.96 ± 5.50 % INSL5.

For the compound `CCOc1cc2c(cc1OC)CCN(C(=O)c1cscn1)[C@H]2CCc1c[nH]c2ccc(OC)cc12` [Compound A80, (S)-(7-ethoxy-6-methoxy-1-(2-(5-methoxy-1H-indol-3-yl)ethyl)-3,4-dihydroisoquinolin-2(1H)-yl) (thiazol-4-yl)methanone], the Ki on RXFP4 (HRXFP4 CHO cells) was above 100 µM.

As for `COc1cc2c(cc1OC)C(Cc1c[nH]c3ccccc13)N(CC1CCOCC1)CC2` (stereo not drawn) [Compound A83], the Ki on RXFP4 (HRXFP4 CHO cells) is above 100 µM.

These data come from US20250340545A1, “TETRAHYDROISOQUINOLINE COMPOUND, PREPARATION METHOD THEREFOR, PHARMACEUTICAL COMPOSITION CONTAINING SAID COMPOUND, AND USE THEREOF” (SHANGHAI INSTITUTE OF MATERIA MEDICA, CHINESE ACADEMY OF …, priority 2022, published 2025).
